Data from BigSolDB 2.1.

Nc1ncnc2c1ncn2CCOCP(=O)(O)O
solubility (mole fraction)
Settings	278.15 K	283.15 K	288.15 K	293.15 K	298.15 K	303.15 K	308.15 K	313.15 K	318.15 K	323.15 K
in DMF	0.000121	0.000203	0.000318	0.000491	0.000762	0.00115	0.00172	0.00254	0.00368	0.0053
in acetone	0.000103	0.000114	0.000145	0.00018	0.000231	0.000286	0.000359	0.000435	0.000531	0.00065
in ethanol	7.5e-05	9.4e-05	0.00012	0.000154	0.000191	0.000237	0.000291	0.000342	0.000438	0.000541
in isobutanol	0.000183	0.000211	0.000252	0.000296	0.000365	0.000433	0.000505	0.000597	0.00069	0.00081
in methanol	0.000352	0.000395	0.000455	0.000523	0.0006	0.000704	0.000805	0.000915	0.00105	0.00122
in n-heptane	0.000127	0.000139	0.000175	0.000217	0.000269	0.000325	0.000394	0.000473	0.00057	0.000679
in n-propanol	0.000217	0.000235	0.000279	0.000343	0.000409	0.000485	0.00058	0.000681	0.0008	0.00093
in toluene	5.7e-05	6.5e-05	8.7e-05	0.000115	0.000144	0.000185	0.000239	0.000295	0.000373	0.000464
